Experimental data as given in patent US3941763A, “PGlu-D-Met-Trp-Ser-Tyr-D-Ala-Leu-Arg-Pro-Gly-NH2 and intermediates” (American Home Products Corporation, priority 1975, dated 1976).
Non-standard residues stand in square brackets, D forms with d. Residues, ends and D or L forms follow the SMILES beside them. pGlu = O=C1CC[C@@H](C(=O)O)N1

Columns and labels:
[1] = system: LRH-induced release of LH; assay: Inhibition of LRH-induced release of LH in vivo in rats; design: species or system Male Sprague-Dawley rats
Protocol: Male Sprague-Dawley rats are divided into two groups of at least 5 animals in each group. One group receives the test compound. The other is the control group (no test compound). At zero time, the test group receives a 100-ng dose (subcutaneous) of D--Met^2 --D--Ala^6 --LRH in 0.2 ml. of physiological saline, while the control group receives a 0.2 ml. dose of physiological saline alone. At 20 minutes, blood samples are removed by cardiac puncture, and LH concentration is determined by double-antibody radioimmunoassay. At 45 minutes, the zero-time dose is repeated for each group of animals. At 50 minutes, the animals in each group are given a 200-ng dose (subcutaneous) of LRH in 0.2 ml. of physiological saline. A second blood sample is removed by cardiac puncture at 70 minutes and LH concentration is determined.

[2] = system: rat pituitary tissue cultures; assay: Inhibition of LRH-induced release of LH in vitro in rat pituitary tissue cultures; assay type: cell-based
Protocol: LH concentration is determined by double-antibody radioimmunoassay.

`CSCC[C@@H](NC(=O)[C@@H]1CCC(=O)N1)C(=O)N[C@@H](Cc1c[nH]c2ccccc12)C(=O)N[C@@H](CO)C(=O)N[C@@H](Cc1ccc(O)cc1)C(=O)N[C@H](C)C(=O)N[C@@H](CC(C)C)C(=O)N[C@@H](CCCNC(=N)N)C(=O)N1CCC[C@H]1C(=O)NCC(=O)O` [D--Met^2 --D--Ala^6 --LRH, L-Pyroglutamyl-D-methionyl-L-tryptophyl-L-seryl-L-tyrosyl-D-alanyl-L-leucyl-L-arginyl-L-prolyl-glycine] ([pGlu][dM]WSY[dA]LRPG-OH) was tested, and the “LH Plasma Conc.” value ([1]; time 20 minutes, before LRH administration, 100 ng s.c. test compound at zero time) was 10 ± 4 ng/mL, the “LH Plasma Conc.” value ([1]; time 70 minutes, after LRH administration (200 ng s.c. at 50 min), 100 ng s.c. test compound at 0 and 45 min) was 25 ± 5 ng/mL and the LH concentration ([2]; LRH 5 ng/ml + D-Met2-D-Ala6-LRH 10 ng/ml, double-antibody radioimmunoassay) was 308 ± 2 ng/mL. It also gave an LH concentration ([2]; LRH 5 ng/ml + D-Met2-D-Ala6-LRH 100 ng/ml, double-antibody radioimmunoassay) of 143 ± 2 ng/mL and an LH concentration ([2]; LRH 5 ng/ml + D-Met2-D-Ala6-LRH 1000 ng/ml, double-antibody radioimmunoassay) of 92 ± 2 ng/mL.
`CC(C)C[C@H](NC(=O)CNC(=O)[C@H](Cc1ccc(O)cc1)NC(=O)[C@H](CO)NC(=O)[C@H](Cc1c[nH]c2ccccc12)NC(=O)[C@H](Cc1c[nH]cn1)NC(=O)[C@@H]1CCC(=O)N1)C(=O)N[C@@H](CCCNC(=N)N)C(=O)N1CCC[C@H]1C(=O)NCC(N)=O` [LRH, L--pGlu--His--Trp--Ser--Tyr--Gly--Leu--Arg--Pro--Gly--NH2, reference compound] gave an LH concentration ([2]; LRH 5 ng/ml alone, no test compound) of 282 ± 11 ng/mL.
